Test results published in US20250051300A1, “GRAM-NEGATIVE SPECIFIC ANTIBIOTICS SPARING EFFECT ON GUT MICROBIOME” (THE BOARD OF TRUSTEES OF THE UNIVERSITY OF ILLINOIS, priority 2021, published 2025).
Like-named read-outs stand apart in the source and are kept apart here.

Columns and labels:
[1] = system: Escherichia coli; test: MIC, micro-dilution broth method (CLSI); format: cell-based
[2] = system: Klebsiella pneumoniae; test: MIC, micro-dilution broth method (CLSI); format: cell-based

Measured: MIC

Fc1ccc(COc2cccc(-c3n[nH]cc3-c3ccncc3)c2)cc1 [Compound 2, 4-(3-(3-((4-fluorobenzyl)oxy)phenyl)-1H-pyrazol-4-yl)pyridine]
16 µg/mL: [1]; Escherichia coli, E. coli AR0081, read-out: MIC | [1]; Escherichia coli, E. coli AR0104, read-out: MIC | [1]; Escherichia coli, E. coli AR0118, read-out: MIC | [1]; Escherichia coli, E. coli AR0128, read-out: MIC | [1]; Escherichia coli, E. coli AR0137, read-out: MIC | [1]; Escherichia coli, E. coli AR0150, read-out: MIC
4 µg/mL: [1]; Escherichia coli, E. coli ELZ 4081, read-out: MIC
8 µg/mL: [1]; Escherichia coli, ATCC25922, E. coli ATCC 25922, read-out: MIC | [1]; Escherichia coli, E. coli AR0077, read-out: MIC | [1]; Escherichia coli, E. coli AR0086, read-out: MIC | [1]; Escherichia coli, E. coli ELZ 4017, read-out: MIC | [1]; Escherichia coli, E. coli ELZ 4072, read-out: MIC
>32 µg/mL: [1]; E. coli AR-0349 (colistin-resistant clinical isolate) | [1]; E. coli AR-0549 | [2]; K. pneumoniae AR-0040 | [2]; K. pneumoniae ATCC BAA-1705
> 32 µg/mL: [1]; Escherichia coli, ATCCBAA2340, E. coli ATCC BAA-2340, read-out: MIC | [1]; Escherichia coli, ATCCBAA2469, E. coli ATCC BAA-2469, read-out: MIC | [1]; Escherichia coli, ATCCBAA2471, E. coli ATCC BAA-2471, read-out: MIC | [1]; Escherichia coli, E. coli AR0048, read-out: MIC | [1]; Escherichia coli, E. coli AR0055, read-out: MIC | [1]; Escherichia coli, E. coli AR0058, read-out: MIC | [1]; Escherichia coli, E. coli AR0061, read-out: MIC | [1]; Escherichia coli, E. coli AR0067, read-out: MIC | [1]; Escherichia coli, E. coli AR0069, read-out: MIC | [1]; Escherichia coli, E. coli AR0084, read-out: MIC | [1]; Escherichia coli, E. coli AR0085, read-out: MIC | [1]; Escherichia coli, E. coli AR0089, read-out: MIC | [1]; Escherichia coli, E. coli AR0114, read-out: MIC | [1]; Escherichia coli, E. coli AR0119, read-out: MIC | [1]; Escherichia coli, E. coli AR0149, read-out: MIC | [1]; Escherichia coli, E. coli AR0151, read-out: MIC | [1]; Escherichia coli, E. coli AR0162, read-out: MIC | [1]; Escherichia coli, E. coli AR0346, read-out: MIC | [1]; Escherichia coli, E. coli AR0348, read-out: MIC | [1]; Escherichia coli, E. coli AR0350, read-out: MIC | [1]; Escherichia coli, E. coli AR0493, read-out: MIC | [1]; Escherichia coli, E. coli AR0494, read-out: MIC | [1]; Escherichia coli, E. coli AR0495, read-out: MIC | [1]; Escherichia coli, E. coli AR0541, read-out: MIC | [1]; Escherichia coli, E. coli AR0543, read-out: MIC | [1]; Escherichia coli, E. coli AR0546, read-out: MIC | [1]; Escherichia coli, E. coli AR0551, read-out: MIC | [1]; Escherichia coli, E. coli AR0559, read-out: MIC | [1]; Escherichia coli, E. coli AR-0349 (colistin-resistant clinical isolate), read-out: MIC | [1]; Escherichia coli, E. coli AR-0549, read-out: MIC | [1]; Escherichia coli, E. coli ELZ 4004, read-out: MIC | [1]; Escherichia coli, E. coli ELZ 4042, read-out: MIC | [1]; Escherichia coli, E. coli ELZ 4139, read-out: MIC | [1]; Escherichia coli, E. coli ELZ 4239, read-out: MIC | [1]; Escherichia coli, E. coli ELZ 4277, read-out: MIC | [1]; Escherichia coli, E. coli ELZ 4346, read-out: MIC | [2]; Klebsiella pneumoniae, ATCC27736, K. pneumoniae ATCC 27736, read-out: MIC | [2]; Klebsiella pneumoniae, ATCCBAA1705, K. pneumoniae ATCC BAA-1705, read-out: MIC | [2]; Klebsiella pneumoniae, ATCCBAA2146, K. pneumoniae ATCC BAA-2146, read-out: MIC | [2]; Klebsiella pneumoniae, ATCCBAA2342, K. pneumoniae ATCC BAA-2342, read-out: MIC | [2]; Klebsiella pneumoniae, ATCCBAA2470, K. pneumoniae ATCC BAA-2470, read-out: MIC | [2]; Klebsiella pneumoniae, ATCCBAA2472, K. pneumoniae ATCC BAA-2472, read-out: MIC | [2]; Klebsiella pneumoniae, ATCCBAA2473, K. pneumoniae ATCC BAA-2473, read-out: MIC | [2]; Klebsiella pneumoniae, K. pneumoniae AR0034, read-out: MIC | [2]; Klebsiella pneumoniae, K. pneumoniae AR0039, read-out: MIC | [2]; Klebsiella pneumoniae, K. pneumoniae AR0041, read-out: MIC | [2]; Klebsiella pneumoniae, K. pneumoniae AR0042, read-out: MIC | [2]; Klebsiella pneumoniae, K. pneumoniae AR0043, read-out: MIC | [2]; Klebsiella pneumoniae, K. pneumoniae AR0044, read-out: MIC | [2]; Klebsiella pneumoniae, K. pneumoniae AR0046, read-out: MIC | [2]; Klebsiella pneumoniae, K. pneumoniae AR0047, read-out: MIC
0.06 µg/mL: [1]; Escherichia coli, E. coli ΔtolC JW5503 (efflux-deficient)
1 µg/mL: [1]; Escherichia coli, E. coli ΔrfaC JW3596 (permeability mutant)
